# “Also recorded” adds a separate entry of the source.
# What was measured:
# [1] = target: β-secretase against APP (APP-EQ-FLAG) (Homo sapiens, UniProt P05067); experiment: β-Secretase activity inhibition experiment in vitro, APP-EQ-FLAG substrate; assay type: biochemical; details: polypeptide 50 μM, 4 hours, 37° C., Western blotting
# Experimental: A solution containing the polypeptide having APP (APP-EQ-FLAG: SEQ ID NO: 18) as shown in FIG. 5(A) was prepared in such a manner that its final concentration was 50 nM.
# To this solution, 9-7 polypeptide, 6-5 polypeptide, #1 polypeptide, #2 polypeptide, #3 polypeptide, #4 polypeptide, #5 polypeptide, #6 polypeptide, #7 polypeptide, #8 polypeptide, #9 polypeptide, and #10 polypeptide were added in such a manner that each solution had the final concentration of 50 μM, followed by reacting with 50 μL β-secretase (0.02 U/μL) for 4 hours. The reaction temperature was 37° C. As a negative control experiment, DMSO was used in place of the 12 types of polypeptides mentioned above.
# After completion of the reaction, each sample was subjected to Western blotting using a monoclonal antibody (82E-1) that specifically recognizes the N terminal of APP-EQ-FLAG as shown in FIG. 5(A). Thereafter, the amount of Aβ33-FLAG protein separated by β-secretase was measured.
# An experiment was conducted in the same manner as Experimental Example 4 described above except that S4 and #4 polypeptides were used as the polypeptide and the amounts of these polypeptides added were adjusted so that the final concentrations were 1, 5, 10, 20, 50, and 100 μM.
# [2] = test system: Notch transiently expressed in CHO-K1 cells (7WD10 cells); experiment: Cleavage of Notch protein (NICD) in 7WD10 cells; assay type: cell-based; details: for NICD in the cell lysate: polypeptide 25 or 50 μM; for abundance of the NICD in the cell lysate: polypeptide 1, 5, 10, 20, and 50 μM
# Experimental: (§1) An experiment was conducted wherein #1, #2, and #4 polypeptides were reacted with CHO-K1 cells (7WD10 cells) that stably expressed APP protein and transiently expressed Notch to confirm the production of Aβ protein and cleavage of Notch protein.
# [3] = test system: CHO-K1 cells (7WD10 cells) that stably expressed APP protein; experiment: Aβ protein production inhibition experiment in 7WD10 cells (sAPPβ, βCTF, Aβ); assay type: cell-based
# Experimental: as §1
# [4] = target: γ-secretase against βCTF (C99-FLAG) (Homo sapiens, UniProt P05067); experiment: γ-Secretase activity inhibition experiment in vitro, C99-FLAG substrate; assay type: biochemical; details: for cleavage activity of γ-secretase against βCTF (Aβ40 from C99-FLAG): polypeptide 50 μM, 4 hours, 37° C., Western blotting
# Sequence of γ-secretase against βCTF (C99-FLAG) (P05067 with tags, fused parts or gaps): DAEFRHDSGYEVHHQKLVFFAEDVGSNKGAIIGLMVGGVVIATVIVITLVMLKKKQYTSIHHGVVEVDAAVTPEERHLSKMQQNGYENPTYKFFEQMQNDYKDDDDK
# Experimental: (§2) A polypeptide having βCTF (C99-FLAG: SEQ ID NO: 16) and mouse-derived Notch protein having a FLAG peptide at the C-terminal side (modification of NCBI Accession No. Q01705.2; SEQ ID NO: 17; hereunder referred to as “Notch”) shown in FIG. 2(A) were each made into a solution having a final concentration of 50 nM.
# (§3) To these solutions, 9-7 polypeptide, 6-5 polypeptide, #1 polypeptide, #2 polypeptide, #3 polypeptide, and #4 polypeptide were added in such a manner that the final concentrations were 50 μM, followed by reacting with 50 μL of CHAPSO-solubilized membrane fraction (γ-secretase-containing fraction) for 4 hours. The reaction temperature was 37° C. As a negative control experiment, DMSO was used in place of the six types of polypeptides described above.
# (§4) Each sample after completion of the reaction was measured in the following manner. As shown in FIG. 2(A), a sample using C99-FLAG was subjected to Western blotting using a monoclonal antibody (82E-1) that specifically recognizes the N terminal of C99-FLAG, and the amount of Aβ40 protein produced by the cleavarage by γ-secretase was measured. In contrast, the reaction sample using Notch-FLAG was subjected to Western blotting using an anti-FLAG monoclonal antibody, and the amount of NICD produced to the separete by γ-secretase was also measured. FIG. 2(B) and FIG. 2(C) show the results.
# (§5) An experiment was conducted in the same manner as in Experimental Example 1 described above, except that only #1 polypeptide was used and the amount of #1 polypeptide was selected so that the final concentrations were 0.5, 1, 5, 10, 20, and 50 μM.
# (§6) An experiment was conducted in the same manner as in Experimental Example 1 described above, except that S4 polypeptide was used as the polypeptide, and each addition amount was set in such a manner that the final concentrations were 1, 5, 10, 20, and 50 μM. In this Experimental Example, #4 polypeptide was added in such a manner that the final result was 50 μM.
# Neuro 2A cells (N2A) = experiment: Mouse Aβ production inhibition experiment, Neuro 2A cells; assay type: cell-based; details: polypeptide 20 μM, Neuro2A cells expressing mouse-type APP, anti-mouse Aβ antibody Western blotting
# Experimental: (§7) #1, #2, and #4 polypeptides were added to the culture solutions of CHO-K1 cells and Neuro 2A cells (N2A) in such a manner that the final concentration was 20 μM. As a control, L685458 (i.e., a γ-secretase inhibitor) and DMSO were added thereto in such a manner that the final concentration was 20 μM.
# (§8) Thereafter, Aβ contained in the cell culture medium was identified by using a Western-blotting method with an antibody (anti-mouse Aβ antibody) that recognizes Aβ. […] In the figure, L indicates L685458, which is a γ-secretase inhibitor (final concentration of 1 μM).
# [5] = target: γ-secretase against Notch (Mus musculus, UniProt Q01705, V1997L); experiment: γ-Secretase activity inhibition experiment in vitro, Notch-FLAG substrate; assay type: biochemical
# Sequence of γ-secretase against Notch (Q01705 with tags, fused parts or gaps V1997L): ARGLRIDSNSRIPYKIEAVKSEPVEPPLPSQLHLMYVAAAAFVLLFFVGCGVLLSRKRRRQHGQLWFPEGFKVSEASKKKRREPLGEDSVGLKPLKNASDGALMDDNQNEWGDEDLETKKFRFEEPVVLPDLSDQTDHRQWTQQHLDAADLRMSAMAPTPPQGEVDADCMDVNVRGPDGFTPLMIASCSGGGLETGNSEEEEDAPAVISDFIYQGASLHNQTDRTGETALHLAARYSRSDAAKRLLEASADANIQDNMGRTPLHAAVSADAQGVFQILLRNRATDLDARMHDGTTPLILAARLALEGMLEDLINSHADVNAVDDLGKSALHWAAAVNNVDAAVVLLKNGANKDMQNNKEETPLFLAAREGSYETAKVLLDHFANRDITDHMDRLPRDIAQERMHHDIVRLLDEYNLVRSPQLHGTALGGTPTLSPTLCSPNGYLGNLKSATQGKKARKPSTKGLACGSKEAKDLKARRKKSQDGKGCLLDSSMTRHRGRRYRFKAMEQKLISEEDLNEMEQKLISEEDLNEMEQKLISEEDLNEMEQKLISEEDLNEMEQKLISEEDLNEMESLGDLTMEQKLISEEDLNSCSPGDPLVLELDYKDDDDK
# Experimental: as §2, §3, §4, §5, §6
# CHO-K1 cells = experiment: Mouse Aβ production inhibition experiment, CHO-K1 cells; assay type: cell-based; details: polypeptide 20 μM, CHO-K1 cells expressing mouse-type APP, anti-mouse Aβ antibody Western blotting
# Experimental: as §7, §8
# [6] = reported in NPL 1; cited from earlier work
# [7] = polypeptide 0.5, 1, 5, 10, 20, and 50 μM
# [8] = polypeptide 1, 5, 10, 20, and 50 μM
# Sequence of β-secretase against APP (APP-EQ-FLAG) (P05067 with tags, fused parts or gaps): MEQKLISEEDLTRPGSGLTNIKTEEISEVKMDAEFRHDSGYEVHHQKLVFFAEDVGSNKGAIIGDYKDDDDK
compound,measurement,setting,value
MGRVNCDCYCIGHYCYCYYCHNI (Ac-MGRVNCDCYCIGHYCYCYYCHNI-NH2; cysteine pairing not given here) [#8],cleavage activity of β-secretase against APP (Aβ33-FLAG),[1],inhibit the cleavage activity of β-secretase against APP more intensely
"FRBGWVYTYTV (FRXGWVYTYTV; HELM PEPTIDE1{[ac].F.R.[O=C([C@H](Cc1ccc(-c2ccccc2)cc1)N[*:1])[*:2]].G.W.V.Y.T.Y.T.V.[am]}$$$$V2.0; SMILES CC(=O)N[C@@H](Cc1ccccc1)C(=O)N[C@@H](CCCNC(=N)N)C(=O)N[C@@H](Cc1ccc(-c2ccccc2)cc1)C(=O)NCC(=O)N[C@@H](Cc1c[nH]c2ccccc12)C(=O)N[C@H](C(=O)N[C@@H](Cc1ccc(O)cc1)C(=O)N[C@H](C(=O)N[C@@H](Cc1ccc(O)cc1)C(=O)N[C@H](C(=O)N[C@H](C(N)=O)C(C)C)[C@@H](C)O)[C@@H](C)O)C(C)C) [S2, B is L-4,4′-biphenylalanine (Bph) residue]",NICD in the cell lysate,[2],did not have any influence on NICD
same,Aβ protein in the cell culture medium,[3]; polypeptide final concentration of 50 μM,exhibited the Aβ protein production inhibition effect almost to the same level as #4 polypeptide and S4 polypeptide
MSIRVCDCYCHGDLCFCYSCINS (Ac-MSIRVCDCYCHGDLCFCYSCINS-NH2; cysteine pairing not given here) [#1],cleavage activity of γ-secretase against βCTF (Aβ40 from C99-FLAG),[4],inhibited more cleavage activity of γ-secretase against βCTF; also recorded: inhibited the cleavage activity of γ-secretase against Aβ protein
same,cleavage activity of γ-secretase against βCTF,[4]; [7],more intensively inhibits the cleavage activity of γ-secretase against βCTF in a concentration-dependent manner; also recorded: inhibited the cleavage activity of γ-secretase against βCTF in a concentration-dependent manner
same,abundance of the NICD in the cell lysate,[2],not decreased
same,production of Aβ in the culture medium,Neuro 2A cells (N2A),the production of Aβ in the culture medium was reduced
same,Aβ protein in the cell culture medium (released Aβ),[3]; [8],decreased depending on the concentration
same,Aβ protein in the cell lysate (intracellular Aβ),[3]; [8],no longer present in a manner dependent on the final concentration
same,sAPP in the cell lysate,[3]; [8],no longer present in a manner dependent on the final concentration
same,βCTF (C99) in the cell lysate,[3]; [8],no longer present in a manner dependent on the final concentration
same,cleavage activity of β-secretase against APP (Aβ33-FLAG),[1],inhibit the cleavage activity of β-secretase against APP more intensely
same,cleavage activity of γ-secretase against Notch (NICD),"[5]; polypeptide 50 μM, 4 hours, 37° C., Western blotting",did not inhibit the cleavage activity against Notch
same,cleavage activity of γ-secretase against Notch (NICD),[5]; [7],did not inhibit the cleavage activity of γ-secretase against Notch
same,production of Aβ in the culture medium,CHO-K1 cells,the production of Aβ in the culture medium was reduced
MPTVYCDCYCAYNACYCYYCRSD (Ac-MPTVYCDCYCAYNACYCYYCRSD-NH2; cysteine pairing not given here) [#10],cleavage activity of β-secretase against APP (Aβ33-FLAG),[1],inhibit the cleavage activity of β-secretase against APP more intensely
MVPVVCDCYCFLSVCFCYSCYIT (Ac-MVPVVCDCYCFLSVCFCYSCYIT-NH2; cysteine pairing not given here) [#5],cleavage activity of β-secretase against APP (Aβ33-FLAG),[1],inhibit the cleavage activity of β-secretase against APP more intensely
MLICDCYCDPRSCICGSCTLV (Ac-MLICDCYCDPRSCICGSCTLV-NH2; cysteine pairing not given here) [L13],NICD in the cell lysate,[2],did not have any affect on NICD
same,Aβ protein in the cell culture medium,[3]; polypeptide 25 or 50 μM,did not inhibit the production of Aβ
MLYTSCDCYCDAFSCFCYSCGPY (Ac-MLYTSCDCYCDAFSCFCYSCGPY-NH2; cysteine pairing not given here) [#6],cleavage activity of β-secretase against APP (Aβ33-FLAG),[1],inhibit the cleavage activity of β-secretase against APP more intensely
"C[C@H](NC(=O)[C@@H](O)c1cc(F)cc(F)c1)C(=O)N[C@@H]1C(=O)N(C)c2ccccc2-c2ccccc21 [LY-411,575]",effect on the thymus,[6],induces atrophy of the thymus
same,number of mature B cells in the spleen,[6],reduces the number of mature B cells in the spleen
MDTVICDCYCDNYVCFCYSCSHV (Ac-MDTVICDCYCDNYVCFCYSCSHV-NH2; cysteine pairing not given here) [#2],cleavage activity of γ-secretase against βCTF (Aβ40 from C99-FLAG),[4],inhibited more cleavage activity of γ-secretase against βCTF
same,abundance of the NICD in the cell lysate,[2],not decreased
same,production of Aβ in the culture medium,Neuro 2A cells (N2A),the production of Aβ in the culture medium was reduced
same,Aβ protein in the cell culture medium (released Aβ),[3]; [8],decreased depending on the concentration
same,Aβ protein in the cell lysate (intracellular Aβ),[3]; [8],no longer present in a manner dependent on the final concentration
same,sAPP in the cell lysate,[3]; [8],no longer present in a manner dependent on the final concentration
same,βCTF (C99) in the cell lysate,[3]; [8],no longer present in a manner dependent on the final concentration
same,cleavage activity of β-secretase against APP (Aβ33-FLAG),[1],inhibit the cleavage activity of β-secretase against APP more intensely
same,production of Aβ in the culture medium,CHO-K1 cells,the production of Aβ in the culture medium was reduced
MPLSICDCYCISTICYCYFCVHR (Ac-MPLSICDCYCISTICYCYFCVHR-NH2; cysteine pairing not given here) [#9],cleavage activity of β-secretase against APP (Aβ33-FLAG),[1],inhibit the cleavage activity of β-secretase against APP more intensely
"CC(C)C[C@H](NC(=O)[C@H](Cc1ccccc1)C[C@@H](O)[C@H](Cc1ccccc1)NC(=O)OC(C)(C)C)C(=O)N[C@@H](Cc1ccccc1)C(N)=O [L685458, reference compound]",amount of NICD in the cell lysate,[2]; L685458 1 μM,the amount of NICD was decreased
same,Aβ protein in the cell culture medium (released Aβ),[3]; L685458 1 μM,decreased
same,Aβ protein in the cell lysate (intracellular Aβ),[3]; L685458 1 μM,decrease in βCTF (C99) and Aβ protein was also observed
same,sAPP in the cell lysate,[3]; L685458 1 μM,such a phenomenon was not observed
same,βCTF (C99) in the cell lysate,[3]; L685458 1 μM,decrease in βCTF (C99) and Aβ protein was also observed
MGLISCDCYCDSTACFCYSCTDF (Ac-MGLISCDCYCDSTACFCYSCTDF-NH2; cysteine pairing not given here) [#3],cleavage activity of β-secretase against APP (Aβ33-FLAG),[1],inhibit the cleavage activity of β-secretase against APP more intensely
